According to patent US12139555B2, “Peptides and compositions for inhibiting hair growth” (RODAN & FIELDS, LLC, priority 2019, dated 2024):
Ends that are not written are not given here. Peptide text beside a SMILES is read from it.

How the values were obtained:
Format in all cases: cell-based, human
[1] = system: μHF; assay: Cytotoxicity testing on μHF, viability by ATP (CellTiter Glo); conditions: for Mean ATP content in μHF after 24 H treatment: N = 5 μHF, CN 1306.1; for ATP content relative to threshold (50% of negative control): 1-10-100 ng/ml, 24 h
Method: Cytotoxicity testing has been performed on μHF at day 3 in order to select the testing concentration of peptides for the following screening assays.
Treatments: Negative control: 1 (not treated), Positive control: FGF18 100 ng/ml, Treatments: 39 (13 peptides, 3 concentrations each: 1-10-100 ng/ml), Biological replicates: 5 μHF for each treatment, Time-point: 1 (after 24 H of treatment), Read-out parameters: Viability by ATP
The test items have been tested at 3 concentrations/each for their cytotoxicity potential after 24 h exposure on μHF. FGF18 100 ng/ml have been used as positive control. The toxicity has been evaluated by ATP release on n=5 μHF.
The μHF microtissue were reconstructed using the hanging drop method into GRAVITY^PLUS plates from InSphero (Switzerland) using fibroblasts and keratinocytes from human origin. The MTs were Transferred in GRAVITYTRAP for treatments and manipulation. Culture conditions: incubator at 37° C., 5% CO2, saturated humidity with adequate culture medium. The Fibroblast batch and keratinocytes has been tested for the absence of HIV, Hepatitis B, Hepatitis C, Mycoplasma. The maintenance medium has been tested for sterility.
The kit CellTiter Glo® (Promega) Luminescent cell Viability Assay is used for Adenosine-5- triphosphate (ATP) quantification. The assay procedures involves adding the single reagent directly to MTs cultured in medium. The cell lysis and the generation of a luminescent signal is proportional to the amount of ATP present. ATP measurements have been performed on 5 biological replicates and mean and standard deviation have been calculated. The threshold of 50% viability in comparison to negative control have been used as cut off; the max concentration possible over threshold has been used for the efficacy screening test.
For the selection of test concentrations of each peptide, the 50% ATP content in comparison with negative (not treated) control has been selected as threshold. The higher concentration over the selected threshold has been used for efficacy screening test for peptides form P1 to P9.

[2] = system: WNT5B; assay: Regressive μHF efficacy screening: WNT5B gene expression by RTqPCR; conditions: FGF18 100 ng/ml, after TGFβ1 10 ng/ml 72H
Description: (§1) To assess the biological activity of the identified set of 13 peptides and their capability to maintain quiescence state, the Vitroscreen μHF standard model has been adapted pushing it in a regressive state (catagen-like) by the application of TGFβ1 to reduce the expression of genes linked to active growth phase (anagen) and to make the model more responsive to FGF18 as quiescence signal.
(§2) In particular, in this regressive model, the application of TGFβ1 to 72H induces a catagen-like status with the down-regulation of FGF7 anagen gene and CCND1 as proliferation marker. […]
(§3) After the selection of test concentrations of the peptides, efficacy was performed on regressing μHF (TGFβ1 treated) at day 5 in order to evaluate the further efficacy of peptides to decrease the gene expression of proliferation (CCND1) and anagen marker (FGF7). The potential down-regulation of epithelial growth regulator WNT5B has been evaluated as an optional parameter.
(§4) Treatments: Negative control: 1 (not treated), Regression inducer: TGFβ1 10 ng/ml, Positive control: FGF18 10-100 ng/ml, Treatments: 13 peptides (1 concentration each), Biological replicates: 1 biological replicates from pool of 20 μHF, Time-point: after 72H of TGFβ1 induction followed by 24H of peptide or FGF18 application, Read-out parameters: 1 Proliferation gene (CCND1) by RTqPCR, 2 anagen regulators (FGF7, WNT5B) by RTqPCR […]

[3] = system: FGF7; assay: Regressive μHF efficacy screening: FGF7 gene expression by RTqPCR
Description: as §1, §2, §3, §4

[4] = system: regressive μHF; assay: Overall efficacy in mimicking FGF18 in regressive μHF (CCND1, FGF7, WNT5B together); conditions: FGF18 10-100 ng/ml, after TGFβ1
Description: as §1, §2
The μHF model has been used for a screening study with the aim to characterize the 13 peptides designed on the basis of FGF18 structure in order to mimic its biological function in retarding hair growth. The following test items have been evaluated after the selection of test concentration in a preliminary tox assay.
as §3, with “parameter. […]” for “parameter.”

[5] = system: CCND1; assay: Regressive μHF efficacy screening: CCND1 gene expression by RTqPCR
Description: as §1, §2, §3, §4

[6] = FGF18 100 ng/ml, after TGFβ1 10 ng/ml 72H

| Molecule | Mean ATP content in μHF after 24 H treatment ([1]; 1 ng/ml) [nM] | Mean ATP content in μHF after 24 H treatment ([1]; 10 ng/ml) [nM] | Mean ATP content in μHF after 24 H treatment ([1]; 100 ng/ml) [nM] | further results |
| --- | --- | --- | --- | --- |
| CC(C)C[C@H](NC(=O)[C@H](CCC(N)=O)NC(=O)[C@@H](N)CCCCN)C(=O)N[C@@H](CCCNC(=N)N)C(=O)O [Peptide P1, KQLR] (H-KQLR-OH; N-terminus and C-terminus assumed) | 1876.5 | 2007.2 | 1903.1 |  |
| CC(C)C[C@H](NC(=O)[C@H](CCCNC(=N)N)NC(=O)[C@@H](N)CC(=O)O)C(=O)N[C@@H](CCCCN)C(=O)O [Peptide P3, DRLK] (H-DRLK-OH; N-terminus and C-terminus assumed) | 1026.2 | 924.8 | 1631.2 |  |
| C[C@@H](O)[C@H](NC(=O)[C@H](CCCCN)NC(=O)[C@@H](N)CCC(=O)O)C(=O)N[C@@H](CC(=O)O)C(=O)O [Peptide P4, EKTD] (H-EKTD-OH; N-terminus and C-terminus assumed) | 1567.7 | 1715.2 | 1597.4 |  |
| NCCCC[C@H](NC(=O)[C@@H](N)CCC(=O)O)C(=O)N[C@@H](CC(=O)O)C(=O)N[C@@H](CC(=O)O)C(=O)O [Peptide P5, EKDD] (H-EKDD-OH; N-terminus and C-terminus assumed) | 1263.3 | 1108.9 | 1255.5 |  |
| C[C@@H](O)[C@H](NC(=O)[C@H](CCCNC(=N)N)NC(=O)[C@@H](N)CCCCN)C(=O)NCC(=O)O [Peptide P6, KRTG] (H-KRTG-OH; N-terminus and C-terminus assumed) | 1122.0 | 1116.0 | 1313.3 |  |
| NCCCC[C@H](NC(=O)[C@@H](N)CCC(=O)O)C(=O)N[C@@H](CC(N)=O)C(=O)N[C@@H](CC(=O)O)C(=O)O [Peptide P7, EKND] (H-EKND-OH; N-terminus and C-terminus assumed) | 1275.4 | 1243.9 | 1258.8 |  |
| N=C(N)NCCC[C@H](NC(=O)[C@@H](N)CC(=O)O)C(=O)N[C@@H](CC(=O)O)C(=O)N[C@@H](CCC(=O)O)C(=O)O [Peptide P8, DRDE] (H-DRDE-OH; N-terminus and C-terminus assumed) | 1148.5 | 1155.5 | 1229.3 |  |
| NCCCC[C@H](NC(=O)[C@@H](N)CC(=O)O)C(=O)N[C@@H](CO)C(=O)N[C@@H](CCC(=O)O)C(=O)O [Peptide P9, DKSE] (H-DKSE-OH; N-terminus and C-terminus assumed) | 1521.4 | 1273.6 | 1469.4 |  |
| CC(C)[C@H](NC(=O)[C@H](CCCNC(=N)N)NC(=O)[C@@H](N)CC(=O)O)C(=O)N[C@@H](CCC(=O)O)C(=O)O [Peptide P10, DRVE] (H-DRVE-OH; N-terminus and C-terminus assumed) | 1727.8 | 1706.1 | 1329.1 | ATP content relative to threshold (50% of negative control) [1]: over the threshold |
| C[C@@H](O)[C@H](NC(=O)[C@H](CCCNC(=N)N)NC(=O)[C@@H](N)CC(=O)O)C(=O)N[C@@H](CC(=O)O)C(=O)O [Peptide P11, DRTD] (H-DRTD-OH; N-terminus and C-terminus assumed) | 463.1 | 447.0 | 149.0 | ATP content relative to threshold (50% of negative control) [1]: under-threshold |
| CC[C@H](C)[C@H](N)C(=O)N[C@@H](CCC(=O)O)C(=O)N[C@@H](CCCCN)C(=O)N[C@H](C(=O)O)C(C)C [Peptide P12, IEKV] (H-IEKV-OH; N-terminus and C-terminus assumed) | 435.7 | 562.8 | 370.0 | ATP content relative to threshold (50% of negative control) [1]: under-threshold |
| CC(C)[C@H](NC(=O)[C@H](CCCNC(=N)N)NC(=O)[C@@H](N)CC(=O)O)C(=O)O [Peptide P13, DRV] (H-Asp-Arg-Val-OH) | 576.0 | 516.6 | 404.1 | ATP content relative to threshold (50% of negative control) [1]: under-threshold |
| Fibroblast Growth Factor 18 [FGF18] |  |  | 1560.3 | Effect on WNT5b expression after TGFβ1 [2]: decrease; Effect on FGF7 expression after TGFβ1 [3, 6]: further down-regulation; Effect in enhancing the down regulation of anagen markers [4]: dose-dependent effect; Effect on CCND1 expression after TGFβ1 [5, 6]: further down-regulation |
| RTGQYK [Peptide P2, RTGQYK] | 1522.4 | 1838.6 | 1687.8 |  |
| Transforming Growth Factor Beta 1 [TGFβ1] |  |  |  | Effect on expression of FGF7 versus CN ([3]; TGFβ1 10 ng/ml, 72H): reduced; Effect on expression of CCND1 versus CN ([5]; TGFβ1 10 ng/ml, 72H): reduced |
